Test results published in patent publication US12138369B2, “Magnetically-activated coating for treating biofilms, and associated systems and methods” (priority 2016, dated 2024).
Counter-ions that a name gives are not always drawn.

Key:
[1] = system: Pseudomonas aeruginosa PAO1 biofilms; assay: MBEC assay: antibiotic exposure with or without thermal shock, biofilm enumeration; format: cell-based; settings: for viable biofilm bacteria after combined treatment: 1 min thermal shock; for effect on biofilm populations: higher concentrations, antibiotic on its own, cannot reliably eliminate
Protocol: Biofilm Growth: Cryogenically preserved Pseudomonas aerugiona PAO1 (15692, American Type Culture Collection, Manassas, Va.) was thawed and streaked on an agar plate (Difco Nutrient Agar, Sparks, Md., USA). The agar plates were inverted and incubated at 37° C. for 24 hours. An inoculum was made by suspending two colony forming units (CFUs) from the agar plate in five milliliters of sterile tryptic soy broth (TSB, BD Bacto, Sparks, Md., USA) made as directed and incubated at 37° C. for 24 hours, achieving an average concentration of 2.12×109±0.07×10^9 CFU/mL. One milliliter of inoculum was then diluted into 15 mL TSB and mixed gently. One hundred fifty microliters of the diluted mixture was then placed into each well of the 96-well plate, except for the negative control wells which received 150 μL of TSB. The plate was part of an MBEC™ assay (Innovotech, Edmonton, AB, Canada) in which a corresponding array of 96 pegs protrudes from the plate lid into the wells, providing a convenient array of substrates for biofilm growth which are then readily transferred to new wells (Harrison et al. 2010). The peg lid was placed onto the 96-well plate then sealed using Parafilm and placed on an orbital shaker table (VWR 1000, 15 mm orbit, Thorofare, N.J., USA) at 160 rpm and incubated at 37° C. for 24 hours.
Antibiotic Preparation: A stock of 5 mg/mL ciprofloxacin in sterile, de-ionized water was prepared with ciprofloxacin hydrochloride (MP Biomedicals, Santa Ana, Calif., USA) and mixed thoroughly. Tobramycin stock was made in a similar fashion by mixing 5 mg/mL tobramycin sulfate salt (Sigma-Aldrich, St. Louis, Mo., USA) in sterile, de-ionized water. Erythromycin was obtained from MP Biomedicals and the stock was prepared by mixing 5 mg/mL erythromycin into ethanol. Each antibiotic mixture was then filter sterilized through a […] PES membrane sterile filter (Millex®GP filter unit) and stored at 2° C. Each antibiotic was then diluted from the stock solution into sterile TSB at an array of concentrations in a 96-well challenge plate used that day.
Antibiotic Exposure: After 24 hr of growth, the array of biofilm-covered pegs was transferred into a 96-well rinse plate (Costar® 96 well flat bottom cell culture, Corning Incorporated, NY, USA) containing 200 μL/well de-ionized, sterile water at ambient temperature for 2 min to remove bacteria not incorporated in the biofilm. The peg lid was then transferred to a 96-well challenge plate of wells containing 200 μL of various concentrations of ciprofloxacin, tobramycin, or erythromycin diluted in TSB. For the antibiotic experiments without thermal shock the peg lid was exposed to a single challenge plate for 24 hours in an incubator at 37° C. before rinsing again for 2 min in a new rinse plate. The peg lid was then transferred to a recovery plate containing 200 μL/well fresh, sterile TSB for resuspension and enumeration.
Antibiotic and Thermal Exposure: To investigate the combined effect of antibiotics and thermal shock, biofilms cultured and exposed to antibiotics as discussed above were removed from their antibiotic challenge plate after only four hours. They were quickly transferred to a challenge plate with the same array of antibiotic concentrations, preheated to the target temperature by a thermostatted water bath. Temperatures of 37° C., 50° C., 60° C., 70° C., and 80° C. were studied at exposure times of 1, 5, and 30 min. The pegs were left in the heated challenge plate for the desired exposure time, then transferred to a new challenge plate with the same antibiotic concentrations at 37° C. and incubated for the remainder of the total 24 hour antibiotic exposure time. Following 24 total hours of antibiotic exposure time the peg lid was rinsed once again for two minutes in a new rinse plate and placed into a recovery plate for resuspension and enumeration. […]

[2] = system: dispersed planktonic bacteria (Pseudomonas aeruginosa PAO1); assay: Optical density measurements of planktonic bacteria dispersed from biofilm; format: cell-based
Protocol: Optical Density Measurements of Planktonic Bacteria: The planktonic bacteria that had escaped the biofilm via dispersion after the thermal treatment were optically observed to better understand the biofilm's dispersion post-thermal treatment while antibiotics were still present. To estimate the free-swimming bacteria following the antibiotic treatment, the optical density (BioTek Gen5 Microplate Reader, Winooski, Vt., USA) at 600 nm was measured for each well in the second challenge plate. The negative controls in the challenge plate contained only TSB and were used to calculate an average background.
Statistical Analysis: The statistical analysis of both the planktonic optical density reads and the logarithmic CFU counts were reported via their arithmetic mean and standard deviation. […] Statistical analysis was performed in GraphPad Prism 7 using the two-way ANOVA with a confidence interval of 95%.

O=C(O)c1cn(C2CC2)c2cc(N3CCNCC3)c(F)cc2c1=O [Ciprofloxacin, ciprofloxacin hydrochloride]
effect on biofilms ([1]; 0.125 μg/mL by itself): little effect
reduction of biofilm populations ([1]; 0.125 μg/mL combined with thermal shock at 60° C. for 5 min): five orders of magnitude
reduction of biofilm populations ([1]; 0.125 μg/mL combined with thermal shock at 70° C. for 1 min): five orders of magnitude
viable biofilm bacteria after combined treatment ([1]; 1 μg/mL combined with 70° C.): no viable bacteria
decrease in viable bacteria of biofilms ([1]; 1 μg/mL, regardless of the heating): at least a five-order magnitude decrease
decrease in viable bacteria of biofilms ([1]; 4 μg/mL (bloodstream concentration), regardless of the heating): at least a five-order magnitude decrease
viable biofilm bacteria after combined treatment ([1]; 4 μg/mL combined with 70° C.): no viable bacteria
effect on biofilm populations [1]: significantly reduce biofilm populations
effect on dispersed planktonic bacteria ([2]; 0.125, 1.0, and 4.0 μg/mL, OD 600 nm): effective against the planktonic bacteria
effect on dispersed planktonic bacteria ([2]; higher two concentrations (1.0, 4.0 μg/mL), regardless of thermal shock): killing off almost all the free-swimming bacteria

CC[C@H]1OC(=O)[C@H](C)[C@@H](O[C@H]2C[C@@](C)(OC)[C@@H](O)[C@H](C)O2)[C@H](C)[C@@H](O[C@@H]2O[C@H](C)C[C@H](N(C)C)[C@H]2O)[C@](C)(O)C[C@@H](C)C(=O)[C@H](C)[C@@H](O)[C@]1(C)O [Erythromycin, erythromycin]
decrease in viable bacteria of biofilms ([1]; 60° C. for 5 min, 64 μg/mL): 1.5 log(CFU/peg)
decrease in viable bacteria of biofilms ([1]; 60° C. for 5 min, 128 μg/mL): 2.7 log(CFU/peg)
decrease in viable bacteria of biofilms ([1]; 70° C. for 1 min, 64 μg/mL): 2.3 log(CFU/peg)
decrease in viable bacteria of biofilms ([1]; 70° C. for 1 min, 128 μg/mL): 6.0 log(CFU/peg)
effect on biofilms ([1]; any concentration, control temperature 37° C.): no effect
effect on biofilms ([1]; any concentration, in combination with 50° C. thermal treatments): no effect
effect on dispersed planktonic bacteria ([2]; 2 μg/mL): no discernible effect
effect on dispersed planktonic bacteria ([2]; 64 μg/mL, even without thermal shock): significant reduction in population
effect on dispersed planktonic bacteria ([2]; 128 μg/mL): further decrease in viable planktonic bacterial cells
effect on dispersed planktonic bacteria, combined treatment ([2]; with 60° C. thermal shock for 5 min): significantly reduced from the non-thermal-shocked values

tobramycin sulfate salt
effect of combined thermal shock and antibiotic on biofilm ([1]; 50° C. for 30 min, 60° C. for 5 min, and 70° C. for 1 min): larger than either treatment by itself
trend of biofilm mitigation with thermal exposure time ([1]; all non-zero concentrations, regardless of temperature (not at 37° C. control)): prolonged thermal exposure time increasing the overall efficacy of biofilm mitigation
effect on biofilm populations [1]: significantly reduce biofilm populations
effect on dispersed planktonic bacteria ([2]; 1.0, 2.0, and 4.0 μg/mL, OD 600 nm): effective against the planktonic bacteria
effect on dispersed planktonic bacteria ([2]; higher two concentrations (2.0, 4.0 μg/mL), regardless of thermal shock): killing off almost all the free-swimming bacteria
